Reference: publication PMC3441706 (PLoS ONE, 2012)

Experiments:
Type in all cases: cell-based
Breast Cancer cell lines = assay: NCI-60 DTP human tumor cell line screen (sulphorhodamine B); settings: 5 cell lines, 48 hours incubation
Experimental: (§1) NVX-412 was included in an anti-cancer activity screen by the National Cancer Institute (NCI). The compound was tested against 59 different human tumor cell lines, representing leukemia, melanoma and cancers of the lung, colon, brain, ovary, breast, prostate, and kidney (for a complete list of cell lines please refer to Shoemaker et al. 2006 [5]). The methodology of this in vitro cancer screen is described in detail on the NCI website (http://dtp.nci.nih.gov/branches/btb/ivclsp.html). Briefly, the human tumor cell lines of the cancer screening panel were grown in RPMI 1640 medium containing 5% FCS and 2 mM L-glutamine in 96-well plates at densities ranging from 5,000 to 40,000 cells/well. After 24 hours the experimental drug was added at 5 concentrations plus control and cells were incubated for additional 48 hours. For determination of the growth-inhibitory effect of the compound a sulphorhodamine B assay was performed that employs a chemical fixation step at the end of drug treatment and a subsequent staining for 10 minutes. After a washing step, absorbance was determined at 515 nm. Three different dose response parameters are then calculated: growth inhibition of 50% (GI50), which is the drug concentration resulting in a 50% reduction in the net protein increase, the drug concentration resulting in total growth inhibition (TGI) and the LC50, indicating a net loss of cells following treatment.

[1] = tested on: Central Nervous System Cancer cell lines; assay: as above; settings: 5 cell lines, 48 hours incubation
Experimental: as §1

Colon Cancer cell lines = assay: as above; settings: 7 cell lines, 48 hours incubation
Experimental: as §1

Leukemia cell lines = assay: as above; settings: 6 cell lines, 48 hours incubation
Experimental: as §1

Melanoma cell lines = assay: as above; settings: 9 cell lines, 48 hours incubation
Experimental: as §1

[2] = tested on: Non-Small Cell Lung Cancer cell lines; assay: as above; settings: 9 cell lines, 48 hours incubation
Experimental: as §1

[3] = tested on: Ovarian Cancer cell lines; assay: as above; settings: 6 cell lines, 48 hours incubation
Experimental: as §1

[4] = tested on: Prostate Cancer cell lines; assay: as above; settings: 2 cell lines, 48 hours incubation
Experimental: as §1

Renal Cancer cell lines = assay: as above; settings: 8 cell lines, 48 hours incubation
Experimental: as §1

BV173 = assay: Cytotoxicity assay (cell counting); settings: Homo sapiens, BV-173; BV173, CML; 72 hours incubation
Experimental: (§2) Cells were plated in 24-well plates. After cells were allowed to recover for 24 hours, NVX-412 was added in fresh growth medium. The maximal DMSO concentration reached in all experiments was below 0.01%. Respective control experiments at the highest DMSO concentration were performed in order to rule out DMSO-induced effects. After 72 hours incubation the proportion of viable cells was determined by cell counting with a Z1 Coulter Particle Counter (Beckman Coulter, Vienna, AUT), a ViCell XR (Beckman Coulter, Vienna, AUT) or a CASY® Cell Counter (Schärfe, Reutlingen, Germany). Cytotoxicity was expressed as IC50 values that were derived from the corresponding dose–response curves.

CL-1 = assay: Cytotoxicity assay (cell counting); settings: Canis lupus familiaris; CL-1, canine T-cell lymphoma; 72 hours incubation
Experimental: as §2

CLBL-1 = assay: Cytotoxicity assay (cell counting); settings: Canis lupus familiaris; CLBL-1, canine B-cell lymphoma; 72 hours incubation
Experimental: as §2

GL-1 = assay: Cytotoxicity assay (cell counting); settings: Canis lupus familiaris; GL-1, canine B-cell leukemia; 72 hours incubation
Experimental: as §2

HeLa = assay: Cytotoxicity assay (cell counting); settings: Homo sapiens, cervix carcinoma, 72 hours incubation
Experimental: as §2

Hs578T = assay: Cytotoxicity assay (cell counting); settings: Homo sapiens, Hs-578T, breast carcinoma, 72 hours incubation
Experimental: as §2

KG-1a = assay: Cytotoxicity assay (cell counting); settings: Homo sapiens, AML, 72 hours incubation
Experimental: as §2

KG-1 = assay: Cytotoxicity assay (cell counting); settings: Homo sapiens; KG-1, AML; 72 hours incubation
Experimental: as §2

MCF-7 = assay: Cytotoxicity assay (cell counting); settings: Homo sapiens, MCF7; MCF-7, breast adenocarcinoma; 72 hours incubation
Experimental: as §2

NALM-1 = assay: Cytotoxicity assay (cell counting); settings: Homo sapiens; NALM-1, CML; 72 hours incubation
Experimental: as §2

OSW = assay: Cytotoxicity assay (cell counting); settings: Canis lupus familiaris, canine T-cell lymphoma, 72 hours incubation
Experimental: as §2

RKO = assay: Cytotoxicity assay (cell counting); settings: Homo sapiens, colon carcinoma, 72 hours incubation
Experimental: as §2

Raji = assay: Cytotoxicity assay (cell counting); settings: Homo sapiens, Burkitt lymphoma, 72 hours incubation
Experimental: as §2

Ramos = assay: Cytotoxicity assay (cell counting); settings: Homo sapiens, Burkitt Lymphoma, 72 hours incubation
Experimental: as §2

SU-DHL-6 = assay: Cytotoxicity assay (cell counting); settings: Homo sapiens; SU-DHL-6, B-cell lymphoma; 72 hours incubation
Experimental: as §2

SU-DHL-8 = assay: Cytotoxicity assay (cell counting); settings: Homo sapiens; SU-DHL-8, B-cell lymphoma; 72 hours incubation
Experimental: as §2

With O=C(NNc1nc2cc(F)ccc2n2cccc12)c1cnccn1 [NVX-412, Pyrazine-2-carboxylic acid N’- (7-fluoro-pyrrolo[1,2-α]quinoxalin-4-yl)-hydrazide-oxalic acid co-crystal] the IC50 (Breast Cancer cell lines) was 0.266 µM, the IC50 [1] was 0.167 µM and the IC50 (Colon Cancer cell lines) was 0.169 µM. The IC50 (Leukemia cell lines) was 0.062 µM, the IC50 (Melanoma cell lines) was 0.214 µM and the IC50 [2] was 0.174 µM. It also gave an IC50 [3] of 0.377 µM, an IC50 [4] of 0.276 µM and an IC50 (Renal Cancer cell lines) of 0.182 µM. The IC50 (BV173) was 0.21 µM, the IC50 (CL-1) was 0.17 µM and the IC50 (CLBL-1) was 0.04 µM. The IC50 (GL-1) was 0.105 µM, the IC50 (HeLa) was 0.21 µM and the IC50 (Hs578T) was 0.135 µM. For the same molecule, the IC50 (KG-1a) was 0.145 µM, the IC50 (KG-1) was 0.19 µM and the IC50 (MCF-7) was 0.15 µM. It also gave an IC50 (NALM-1) of 0.33 µM, an IC50 (OSW) of 0.103 µM and an IC50 (RKO) of 0.15 µM. It also gave an IC50 (Raji) of 0.06 µM, an IC50 (Ramos) of 0.17 µM and an IC50 (SU-DHL-6) of 0.32 µM. For the same molecule, the IC50 (SU-DHL-8) was 0.08 µM.
